These results are taken from US5453426A, “Sulfur-containing xanthine derivatives as adenosine antagonists” (priority 1994, dated 1995).

Each structure is given as a SMILES string. Converted amounts (≈) assume the structure as drawn. Read-outs that look alike come from different tables or passages of the source.

Series [1] has as its target T1, A2 adenosine receptors (Rattus norvegicus, UniProt P30543). The arrangement: A2 -adenosine receptors in rat striatal membranes; from tissue; host or cells: rat striatum membranes. The settings on record: values taken from Jacobson et al. (ref 10); cited from earlier work.
The target of series [2] is T2, A1 adenosine receptors (Rattus norvegicus, UniProt P25099).
T2 construct: A1 adenosine receptors in rat cerebral cortical membranes; from tissue; host or cells: rat cerebral cortex membranes
T2 sequence (P25099 1-326): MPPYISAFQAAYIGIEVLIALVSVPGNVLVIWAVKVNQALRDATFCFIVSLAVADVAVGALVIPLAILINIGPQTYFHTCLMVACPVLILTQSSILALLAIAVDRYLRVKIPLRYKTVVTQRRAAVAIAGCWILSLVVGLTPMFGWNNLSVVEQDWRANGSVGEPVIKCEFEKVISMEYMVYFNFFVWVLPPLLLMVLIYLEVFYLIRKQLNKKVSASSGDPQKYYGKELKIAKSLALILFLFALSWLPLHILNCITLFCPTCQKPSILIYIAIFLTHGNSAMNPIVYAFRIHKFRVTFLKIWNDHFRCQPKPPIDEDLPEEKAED
Nature of the series: Inhibition of binding of [3H]N6-phenylisopropyladenosine to A1 adenosine receptors in rat cerebral cortical membranes. The note with it: for Ki (A2)/Ki (A1): ratio of A2 (rat striatum) to A1 (rat cortex) Ki.

Series [3] relates to A1 -adenosine receptors. The settings on record: ref 10a; cited from earlier work.
Series [4] has as its system tracheal relaxation. The note with it: background, ref 9a, cited from earlier work; for cardiac or behavioral stimulation: accompanying tracheal relaxation.
Series [5] deals with cardiac depression. The note with it: background, ref 9b; cited from earlier work.
Series [6] addresses Nethylcarboxamidoadenosine-stimulated adenylat cyclase. The note with it: PC12 cell membranes; printed in brackets in the A2 Ki column; ref 10b; read-out: Kb for inhibition of N-ethylcarboxamidoadenosine-stimulated adenylate cyclase; cited from earlier work.
Series [7] has as its target adenosine receptor. The settings on record: background; read-out: Ki-values as adenosine antagonists; cited from earlier work.
Series [8] can be described thus: Limit of solubility in the A2 binding assay. Type of series: physicochemical. The note with it: binding assay medium. From the text:
Thus, compound 22 is >285-fold A1 -selective in these binding assays.

The target of series [9] is T1, A2 adenosine receptors. Nature of the series: Inhibition of binding of [3H]N-ethylcarboxamidoadenosine to A2-adenosine receptors in rat striatal membranes.
Experimental: Affinity at A1 - and A2 -adenosine receptors was measured in competitive binding assays, using as radioligands [^3 H]N^6 -phenylisopropyladenosine^17 (with rat cerebral cortical membranes) and [^3 H]5'-N-ethylcarboxamidoadenosine (with rat striatal membranes),^18 respectively.
N^6 -Cyclopentyladenosine was present at 50 nM to inhibit binding of the ligand at A1 -adenosine receptors. Inhibition of binding by a range of concentrations of xanthines was assessed in triplicate in at least three separate experiments. IC50 -values were converted to Ki-values by the method of Bruns et al,^18 using a conversion factor derived from the affinity of [^3 H]N-ethylcarboxamidoadenosine at A2 receptors and the Cheng-Prusoff equation.^19
Series [10] has as its system A1 receptor. The note with it: relative to 8-phenyltheophylline; cited from earlier work.
Series [11] relates to A2 receptor. The settings on record: relative to 8-phenyltheophylline; cited from earlier work.
The test system of series [12] is A1 -adenosine receptors. The settings on record: background; cited from earlier work.

T1 sequence (P30543 whole entry): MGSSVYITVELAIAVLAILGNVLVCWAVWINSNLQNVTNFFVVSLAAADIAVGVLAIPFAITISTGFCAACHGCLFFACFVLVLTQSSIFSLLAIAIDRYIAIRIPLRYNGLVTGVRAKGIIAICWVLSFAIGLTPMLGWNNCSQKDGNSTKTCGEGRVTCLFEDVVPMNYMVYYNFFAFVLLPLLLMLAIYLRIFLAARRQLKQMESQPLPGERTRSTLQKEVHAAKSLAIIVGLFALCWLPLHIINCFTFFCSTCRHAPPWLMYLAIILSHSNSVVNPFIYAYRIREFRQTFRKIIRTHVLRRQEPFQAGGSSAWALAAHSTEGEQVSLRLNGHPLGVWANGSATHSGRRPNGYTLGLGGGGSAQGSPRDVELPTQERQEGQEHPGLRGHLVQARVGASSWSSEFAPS

Consider `CCCn1c(=O)c2[nH]c(-c3ccc(OCC(=O)NCCNC(=O)CCCCCCC(=O)ON4C(=O)CCC4=O)cc3)nc2n(CCC)c1=O` [Compound 44], for which the Ki in [1] was 207 ± 57 nM. Further, in series [2], the “Ki (A2)/Ki (A1)” value was 56. Further, in series [3], the “irreversible inhibitor of A1-adenosine receptors at concentrations” value is “greater than 50 nM”.
Regarding `Cn1c(=S)c2c(ncn2C)n(C)c1=O` [6-thiocaffeine], in [4], the “cardiac or behavioral stimulation” value is recorded as “without cardiac or behavioral stimulation” and the tracheal relaxation result is on record as “induce tracheal relaxation”. In [5], the cardiac effect entry is listed as “cause cardiac depression rather than stimulation”.
For the molecule `CCCn1c(=O)c2[nH]c(-c3ccc(OCC(=O)NCCNC)cc3)nc2n(CCC)c1=O` [Compound 32], in series [6], the Kb was 9.3 ± 2.1 nM.
Turning to `Cn1c(=O)c2[nH]cnc2n(C)c1=O` [Compound 1a, theophylline], in series [7], the inhibition constant Ki was at least 10000 nM.
`CCCn1c(=O)c2[nH]c(-c3cccs3)nc2n(CCC)c1=S` [Compound 22, 1,3-Dipropyl-8-(2-thienyl)-2-thioxanthine] returned a solubility in series [8] of around 10 µM (≈ 3.34 µg/mL). For the same molecule, the Ki in [9] is above 10000 nM; in [2] (rat cortical membranes, [3H]PIA, single determination in triplicate or average of three ± S.E.M., read-out: Ki A1-receptors) it was 35.1 ± 6 nM. Moreover, the “A2 affinity/potency, in words” value in [9] (relative to the analogs named in the text) is on record as “did not bind measurably to A2 -receptors at its limit of solubility”. In series [2] (A1 (rat cortex) versus A2 (rat striatum) binding), this molecule gave an A1-selectivity above 285 fold. In series [2] (A1 versus A2 binding, relative to oxygen analogs), the “A1-selectivity, in words” value is listed as “a greater margin of A1 -selectivity”. Moreover, the “Ki (A2)/Ki (A1)” value in series [2] is on record as above 285.
In the case of `Cn1c(=S)c2[nH]cnc2n(C)c1=O` [6-thiotheophylline], in [4], the “cardiac or behavioral stimulation” value is recorded as “without cardiac or behavioral stimulation” and the tracheal relaxation entry is given as “induce tracheal relaxation”. The cardiac effect result in series [5] is recorded as “cause cardiac depression rather than stimulation”.
For `Cn1c(=O)c2sc(-c3ccccc3)nc2n(C)c1=O`, the “reduction of activity at an A1 receptor by thio-substitution” value in series [10] was 1000 fold. In addition, in [11], the “reduction of activity at an A2 receptor by thio-substitution” value is given as around 100 fold.
`CCCn1c(=O)c2[nH]c(C3CCCC3)nc2n(CCC)c1=O` [Compound 2b, 8-cyclopentyl-1,3-dipropylxanthine]: in [12], the “potency in binding at A1-adenosine receptors versus theophylline” value is “more than four orders of magnitude more potent than theophylline”.
